According to patent publication US20230113037A1 (Bayer Aktiengesellschaft, priority 2019, published 2023):
Read-outs that look alike come from different tables or passages of the source.

Experiments:
[1] = target: T1, AHR (Mus musculus, UniProt P30561); assay: In vitro assay 3: antagonism in mouse cell line (AHR transactivation, firefly luciferase reporter, kynurenic acid prestimulated); type: cell-based
T1 sequence (P30561 1-848 P471L/N533S/M589L): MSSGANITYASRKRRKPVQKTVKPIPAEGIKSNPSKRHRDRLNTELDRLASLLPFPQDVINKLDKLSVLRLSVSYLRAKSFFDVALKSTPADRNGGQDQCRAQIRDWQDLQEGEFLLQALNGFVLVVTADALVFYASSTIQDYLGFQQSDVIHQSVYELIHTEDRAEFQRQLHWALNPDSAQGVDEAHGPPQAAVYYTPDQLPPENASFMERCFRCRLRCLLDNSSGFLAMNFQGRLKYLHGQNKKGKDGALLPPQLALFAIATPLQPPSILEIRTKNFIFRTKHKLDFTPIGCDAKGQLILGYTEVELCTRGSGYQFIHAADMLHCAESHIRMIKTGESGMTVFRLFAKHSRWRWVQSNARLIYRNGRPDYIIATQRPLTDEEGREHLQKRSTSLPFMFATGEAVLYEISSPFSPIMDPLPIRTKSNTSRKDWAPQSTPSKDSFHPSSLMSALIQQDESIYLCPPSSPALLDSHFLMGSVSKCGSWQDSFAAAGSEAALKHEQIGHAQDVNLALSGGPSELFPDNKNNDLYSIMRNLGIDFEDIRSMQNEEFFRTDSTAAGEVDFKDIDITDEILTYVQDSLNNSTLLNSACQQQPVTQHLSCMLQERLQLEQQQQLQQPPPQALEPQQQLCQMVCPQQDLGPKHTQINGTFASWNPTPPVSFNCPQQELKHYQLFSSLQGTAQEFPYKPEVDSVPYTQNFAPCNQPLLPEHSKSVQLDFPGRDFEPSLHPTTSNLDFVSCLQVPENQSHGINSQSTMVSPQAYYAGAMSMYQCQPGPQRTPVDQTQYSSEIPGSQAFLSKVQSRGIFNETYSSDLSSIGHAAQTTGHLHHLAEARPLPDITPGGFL
In short: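 Cells were first stimulated with kynurenic acid, then exposed to test compound, after which firefly luciferase from a DRE-containing AHR reporter was read out. Signal was scaled between positive and negative controls. Cells not given kynurenic acid provided the inhibition reference.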

[2] = target: T2, AHR (Homo sapiens, UniProt P35869); assay: In vitro assay 1: antagonism in human cell line (AHR transactivation, firefly luciferase reporter, kynurenic acid prestimulated); type: cell-based; details: AHR Antagonism Human IC50 [M]
T2 construct: U87 MG glioblastoma cells (ATCC #HTB-14) endogenously expressing AHR; endogenous in cells; host or cells: U87 MG glioblastoma cells (ATCC #HTB-14)
T2 sequence (P35869 11-848): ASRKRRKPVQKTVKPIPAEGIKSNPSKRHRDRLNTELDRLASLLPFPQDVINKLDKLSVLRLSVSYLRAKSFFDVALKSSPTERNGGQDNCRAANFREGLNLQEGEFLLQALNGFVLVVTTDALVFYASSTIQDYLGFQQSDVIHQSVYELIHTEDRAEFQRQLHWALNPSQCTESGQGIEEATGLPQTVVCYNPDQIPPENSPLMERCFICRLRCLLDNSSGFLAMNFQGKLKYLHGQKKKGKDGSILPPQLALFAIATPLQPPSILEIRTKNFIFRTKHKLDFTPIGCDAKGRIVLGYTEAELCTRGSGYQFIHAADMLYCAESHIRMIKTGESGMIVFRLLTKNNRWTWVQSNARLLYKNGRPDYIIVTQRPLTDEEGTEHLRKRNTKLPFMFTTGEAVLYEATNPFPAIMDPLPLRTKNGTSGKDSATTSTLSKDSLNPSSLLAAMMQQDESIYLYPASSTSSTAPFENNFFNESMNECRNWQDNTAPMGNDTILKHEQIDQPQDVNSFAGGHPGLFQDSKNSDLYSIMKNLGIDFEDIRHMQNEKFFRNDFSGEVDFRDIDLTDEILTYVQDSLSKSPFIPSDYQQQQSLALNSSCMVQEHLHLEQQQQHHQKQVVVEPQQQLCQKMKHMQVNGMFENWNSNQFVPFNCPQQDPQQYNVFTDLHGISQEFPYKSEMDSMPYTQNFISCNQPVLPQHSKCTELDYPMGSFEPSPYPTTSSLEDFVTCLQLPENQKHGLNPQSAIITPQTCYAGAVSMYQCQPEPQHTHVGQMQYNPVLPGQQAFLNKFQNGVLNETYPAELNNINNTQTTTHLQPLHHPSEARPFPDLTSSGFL
In short: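 U87 MG glioblastoma cells with endogenous AHR, stably carrying a DRE-driven firefly luciferase reporter and constitutive Renilla reporter, prestimulated with kynurenic acid before compound addition. Firefly and Renilla read by dual luciferase; Renilla flags toxicity; normalized to controls (150 μM kynurenic acid + 5 μM staurosporine as full inhibition); repeat values averaged or median.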

[3] = Hepa 1c1c7 cells, 200 μM kynurenic acid, 20 hours, firefly luciferase reporter, read-out: AHR Antagonism Mouse IC50
[4] = mouse Hepa 1c1c7 cells, 200 μM kynurenic acid, 20 hours, read-out: AHR Antagonism Mouse IC50

| Structure (SMILES) | IC50 [1, 3] | IC50 ([2]; firefly luciferase reporter) | IC50 [1, 4] | IC50 [2] | IC50 ([1]; read-out: AHR Antagonism Mouse IC50, Hepa 1c1c7 cells, 200 μM kynurenic acid, 20 hours, firefly luciferase reporter) |
| --- | --- | --- | --- | --- | --- |
| COc1ccc(-c2nc3c4ccccc4nc(N[C@H](C)C(=O)NCCN(C)C(=O)OC(C)(C)C)n3n2)cc1 [Example 889, tert-butyl [2-({N-[2-(4-methoxyphenyl)[1,2,4]triazolo[1,5-c]quinazolin-5-yl]-D-alanyl}amino)ethyl]methylcarbamate] | 4.45 nM | 3.9e-09 M |  |  |  |
| C[C@@H](Nc1nc2c(Br)cccc2c2nc(-c3cnn(C)c3)nn12)C(=O)N1CCOCC1 [Example 785, (2R)-2-{[7-bromo-2-(1-methyl-1H-pyrazol-4-yl)[1,2,4]triazolo[1,5-c]quinazolin-5-yl]amino}-1-(morpholin-4-yl)propan-1-one] | 32.2 nM | 2.38e-08 M |  |  |  |
| COc1cccc(-c2nc3c4ccccc4nc(N[C@@H](Cc4ccc(O)cc4)C(N)=O)n3n2)c1 [Example 84, N^2-[2-(3-methoxyphenyl)[1,2,4]triazolo[1,5-c]quinazolin-5-yl]-L-tyrosinamide] |  |  | 1380 nM | 1.01e-06 M |  |
| COc1cscc1-c1nc2c3ccccc3nc(N[C@@H]3CCN(C)C3=O)n2n1 [Example 337, (3R)-3-{[2-(4-methoxythiophen-3-yl)[1,2,4]triazolo[1,5-c]quinazolin-5-yl]amino}-1-methylpyrrolidin-2-one] |  |  | > 20000 nM | 1.71e-06 M |  |
| CC(C)c1cccc2c1nc(N[C@@H]1CCCCNC1=O)n1nc(-c3cccc(F)c3)nc21 [Example 394, (3R)-3-{[2-(3-Fluorophenyl)-7-(propan-2-yl)[1,2,4]triazolo[1,5-c]quinazolin-5-yl]amino}azepan-2-one] |  |  | 30.9 nM | 1.16e-08 M |  |
| O=C1NCCCC[C@H]1Nc1nc2cccc(C(F)(F)F)c2c2nc(-c3ccc(F)cc3)nn12 [Example 174, (3R)-3-{[2-(4-fluorophenyl)-10-(trifluoromethyl)[1,2,4]triazolo[1,5-c]quinazolin-5-yl]amino}azepan-2-one] |  |  | 4.04 nM | 2.26e-08 M |  |
| N#Cc1cccc(-c2nc3c4ccccc4nc(N[C@@H]4CCNC4=O)n3n2)c1 [Example 383, 3-(5-{[(3R)-2-oxopyrrolidin-3-yl]amino}[1,2,4]triazolo[1,5-c]quinazolin-2-yl)benzonitrile] |  |  | 388 nM | 1.39e-07 M |  |
| C[S+]([O-])c1ccccc1-c1nc2c3ccccc3nc(N[C@@H]3CCCCNC3=O)n2n1 (mixture of isomers) [Example 648, (3R)-3-[(2-{2-[methanesulfinyl]phenyl}[1,2,4]triazolo[1,5-c]quinazolin-5-yl)amino]azepan-2-one] |  |  | 3.63 nM | 6.89e-09 M |  |
| COc1ccc(-c2nc3c4cc(OC)ccc4nc(N[C@@H]4CCCCNC4=O)n3n2)cc1 [Example 237, (3R)-3-{[9-methoxy-2-(4-methoxyphenyl)[1,2,4]triazolo[1,5-c]quinazolin-5-yl]amino}azepan-2-one] |  |  | 38.7 nM | 1.33e-08 M |  |
| CC(C)n1cc(-c2nc3c4ccccc4nc(N[C@@H]4CCCCNC4=O)n3n2)cn1 [Example 195, (3R)-3-({2-[1-(propan-2-yl)-1H-pyrazol-4-yl][1,2,4]triazolo[1,5-c]quinazolin-5-yl]amino)azepan-2-one] |  |  | 2.55 nM | 3.06e-09 M |  |
| COc1cccc(-c2nc3c4ccccc4nc(NC4CCCNC4=O)n3n2)c1 (single isomer, unassigned) [Example 118, 3-{[2-(3-methoxyphenyl)[1,2,4]triazolo[1,5-c]quinazolin-5-yl]amino}piperidin-2-one] |  |  | 40.2 nM | 6.43e-08 M |  |
| O=C1NCCNC[C@H]1Nc1nc2c(Br)cccc2c2nc(-c3cnn(C4CC4)c3)nn12 [Example 952, (6R)-6-{[7-bromo-2-(1-cyclopropyl-1H-pyrazol-4-yl)[1,2,4]triazolo[1,5-c]quinazolin-5-yl]amino}-1,4-diazepan-5-one] |  | 3.97e-09 M |  |  | 6.74 nM |
| N#Cc1cccc(-c2nc3c4ccccc4nc(N[C@@H]4CCCCNC4=O)n3n2)c1 [Example 381, 3-(5-{[(3R)-2-oxoazepan-3-yl]amino}[1,2,4]triazolo[1,5-c]quinazolin-2-yl)benzonitrile] |  |  | 1.51 nM | 1.02e-08 M |  |
| CCCNC(=O)[C@@H](C)Nc1nc2ccccc2c2nc(-c3cc(F)ccc3OC(F)(F)F)nn12 [Example 495, N^2-{2-[5-fluoro-2-(trifluoromethoxy)phenyl][1,2,4]triazolo[1,5-c]quinazolin-5-yl}-N-propyl-D-alaninamide] |  |  | 13.2 nM | 7.03e-08 M |  |
| O=C1NCCCC[C@H]1Nc1nc2ccccc2c2nc(-c3cccc(C(F)(F)F)n3)nn12 [Example 370, (3R)-3-({2-[6-(trifluoromethyl)pyridin-2-yl][1,2,4]triazolo[1,5-c]quinazolin-5-yl}amino)azepan-2-one] |  |  | 6.38 nM | 5.45e-08 M |  |
| CN(C)c1ccc(-c2nc3c4ccccc4nc(N[C@@H]4CCCCNC4=O)n3n2)cc1 [Example 128, (3R)-3-({2-[4-(dimethylamino)phenyl][1,2,4]triazolo[1,5-c]quinazolin-5-yl}amino)azepan-2-one] |  |  | 0.316 nM | 1.5e-09 M |  |
| Cc1cc(-c2nc3c4ccccc4nc(N[C@@H]4CCN(C)C4=O)n3n2)cs1 [Example 355] |  |  | 36.6 nM | 3.79e-08 M |  |
| COc1ccc(-c2nc3c4cccc(OC)c4nc(N[C@@H]4CCCCNC4=O)n3n2)cc1 [Example 205, (3R)-3-{[7-methoxy-2-(4-methoxyphenyl)[1,2,4]triazolo[1,5-c]quinazolin-5-yl]amino}azepan-2-one] |  |  | 7.65 nM | 2.15e-09 M |  |
| COc1ccc(-c2nc3c4cc(Cl)ccc4nc(N[C@@H]4CCCCNC4=O)n3n2)cc1 [Example 235, (3R)-3-{[9-chloro-2-(4-methoxyphenyl)[1,2,4]triazolo[1,5-c]quinazolin-5-yl]amino}azepan-2-one] |  |  | 1.14 nM | 2.34e-09 M |  |
| CC(C)(C)n1nccc1-c1nc2c3ccccc3nc(N[C@@H]3CCCCNC3=O)n2n1 [Example 608, (3R)-3-{[2-(1-tert-butyl-1H-pyrazol-5-yl)[1,2,4]triazolo[1,5-c]quinazolin-5-yl]amino}azepan-2-one] |  |  | 25.5 nM | 1.12e-07 M |  |
| O=C1NCCCC[C@H]1Nc1nc2ccccc2c2nc(-c3cc[nH]n3)nn12 [Example 62, (3R)-3-{[2-(1H-pyrazol-3-yl)[1,2,4]triazolo[1,5-c]quinazolin-5-yl]amino}azepan-2-one] |  |  | 154 nM | 1.11e-07 M |  |
| COc1ccc(-c2nc3c4cccc(Br)c4nc(N[C@H](C)C(=O)O)n3n2)cc1 [Example 870] | 10.7 nM | 1.09e-08 M |  |  |  |
| COc1ccc(-c2nc3c4cccc(C(C)C)c4nc(N[C@@H]4CNCCNC4=O)n3n2)cc1 [Example 429, (6R)-6-{[2-(4-methoxyphenyl)-7-(propan-2-yl)[1,2,4]triazolo[1,5-c]quinazolin-5-yl]amino}-1,4-diazepan-5-one] |  |  | 70.9 nM | 7.8e-09 M |  |
